Tests used:
[1] = target: T1, Avi-KRAS G12D (2-169) GTP/RAF1 RBD-3xFLAG (51-131) (Homo sapiens, UniProt P01116, G12D); test: Raf1-KRAS G12D-GTP disruption HTRF assay (Biological Example 3); format: binding; conditions: KRAS G12D, GTP-loaded
T1 construct: Avi-KRAS G12D (2-169)
Summary of the method: (§1)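 An HTRF assay measured disruption of 50 nM Avi-KRAS (2-169)-GTP (WT, G12C, G12D or G12V) bound to RAF1 RBD-3xFLAG (51-131). Buffer was Tris pH 7.5 with 5 mM MgCl2 and 10% DMSO. Compounds (30–0.005 μM, 3-fold, 10 points) were incubated 1 h at room temperature, and activity is given as % of DMSO.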

GP2d cells (KRAS G12D) = test: Cell-based pERK HTRF assay in GP2d cell (Biological Example 2); conditions: GP2d, GP2d (KRAS G12D) cells
Summary of the method: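 60 min compound, 0.25% DMSO, 9-pt half-log curve from 1 μM or 100 nM; DMEM/10% FBS.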

[2] = target: T2, Avi-KRAS G12V (2-169) GTP/RAF1 RBD-3xFLAG (51-131) (Homo sapiens, UniProt P01116, G12V); test: Raf1-KRAS G12V-GTP disruption HTRF assay (Biological Example 3); format: binding; conditions: KRAS G12V, GTP-loaded
T2 construct: Avi-KRAS G12V (2-169)
T2 sequence (P01116 2-169 isoform P01116-2 G12V): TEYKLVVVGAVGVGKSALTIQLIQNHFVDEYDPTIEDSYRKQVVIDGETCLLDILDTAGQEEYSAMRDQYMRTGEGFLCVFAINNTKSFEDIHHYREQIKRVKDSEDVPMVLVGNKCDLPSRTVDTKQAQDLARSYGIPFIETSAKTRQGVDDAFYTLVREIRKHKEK
Summary of the method: as §1

[3] = target: T3, Avi-KRAS G12C (2-169) GTP/RAF1 RBD-3xFLAG (51-131) (Homo sapiens, UniProt P01116, G12C); test: Raf1-KRAS G12C-GTP disruption HTRF assay (Biological Example 3); format: binding; conditions: KRAS G12C, GTP-loaded
T3 construct: Avi-KRAS G12C (2-169)
T3 sequence (P01116 2-169 isoform P01116-2 G12C): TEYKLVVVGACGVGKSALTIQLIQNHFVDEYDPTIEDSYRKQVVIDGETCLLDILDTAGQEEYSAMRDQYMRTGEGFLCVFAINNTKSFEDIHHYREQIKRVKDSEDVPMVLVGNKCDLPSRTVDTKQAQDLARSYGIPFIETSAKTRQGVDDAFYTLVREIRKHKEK
Summary of the method: as §1

[4] = target: T4, Avi-KRAS WT (2-169) GTP/RAF1 RBD-3xFLAG (51-131) (Homo sapiens, UniProt P01116); test: Raf1-KRAS WT-GTP disruption HTRF assay (Biological Example 3); format: binding; conditions: KRAS WT, GTP-loaded
T4 construct: Avi-KRAS WT (2-169)
T4 sequence (P01116 2-169 isoform P01116-2): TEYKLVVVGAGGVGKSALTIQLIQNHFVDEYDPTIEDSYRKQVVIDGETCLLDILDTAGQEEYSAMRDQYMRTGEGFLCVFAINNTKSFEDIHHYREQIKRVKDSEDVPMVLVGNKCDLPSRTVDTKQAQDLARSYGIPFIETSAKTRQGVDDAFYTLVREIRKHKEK
Summary of the method: as §1

SW620 cells (KRAS G12V) = test: Cell-based pERK HTRF assay in SW620 cell (Biological Example 4); conditions: Homo sapiens, SW-620, SW620 (KRAS G12V) cells
Summary of the method: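 SW620 seeded in RPMI/10% FBS, next day dosed 4 h (top 1 μM, half-log, 9 pts, 0.25% DMSO). Lysed, pERK by d2/Eu cryptate HTRF, 4–24 h RT, 615 nm read.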

T1 sequence (P01116 2-169 isoform P01116-2 G12D): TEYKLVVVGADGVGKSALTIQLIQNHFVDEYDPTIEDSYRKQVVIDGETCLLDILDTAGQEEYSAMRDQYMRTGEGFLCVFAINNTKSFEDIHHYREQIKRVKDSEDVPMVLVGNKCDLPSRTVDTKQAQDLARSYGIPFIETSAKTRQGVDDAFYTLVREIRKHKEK

IC50 [1]	IC50 (GP2d cells (KRAS G12D))	IC50 [2]	IC50 [3]	IC50 [4]	IC50 (SW620 cells (KRAS G12V))	Compound
1000 to 10000 nM	< 100 nM	1000 to 10000 nM	1000 to 10000 nM	1000 to 10000 nM	< 100 nM	CCN(Cc1cccnc1)c1nc(OC[C@@]23CCCN2C[C@H](F)C3)nc2c(F)c(-c3ccc(F)c4sc(N)c(C#N)c34)c(C(F)(F)F)cc12 (atropisomer, axis not shown) [Compound 862]
100 to 1000 nM	< 100 nM	100 to 1000 nM	100 to 1000 nM	100 to 1000 nM	< 100 nM	CCN(c1nc(OC[C@@]23CCCN2C[C@H](F)C3)nc2c(F)c(-c3ccc(F)c4sc(N)c(C#N)c34)c(C(F)(F)F)cc12)[C@H]1CCN(C(=O)[C@H]2C[C@@H](F)C2)C1 (atropisomer, axis not shown) [Compound 842]
100 to 1000 nM	< 100 nM	100 to 1000 nM	100 to 1000 nM	100 to 1000 nM	< 100 nM	CCN(c1nc(OC[C@@]23CCCN2C[C@H](F)C3)nc2c(F)c(-c3ccc(F)c4sc(N)c(C#N)c34)c(C(F)(F)F)cc12)[C@H]1CCN(C(=O)[C@@H]2C[C@@H]2F)[C@@H]1C (atropisomer, axis not shown) [Compound 889]
100 to 1000 nM	< 100 nM	1000 to 10000 nM	1000 to 10000 nM	1000 to 10000 nM	< 100 nM	CO[C@H](C)C(=O)N1CC[C@H](N(c2nc(OC[C@@]34CCCN3C[C@H](F)C4)nc3c(F)c(-c4ccc(F)c5sc(N)c(C#N)c45)c(C(F)(F)F)cc23)C2CC2)C1 (atropisomer, axis not shown) [Compound 826]
100 to 1000 nM	< 100 nM	100 to 1000 nM	100 to 1000 nM	100 to 1000 nM	< 100 nM	CCN(c1nc(OC[C@@]23CCCN2C[C@H](F)C3)nc2c(F)c(-c3ccc(F)c4sc(N)c(C#N)c34)c(C(F)(F)F)cc12)[C@H]1CCN(C(C)=O)[C@@H]1COC (atropisomer, axis not shown) [Compound 924]
100 to 1000 nM	< 100 nM	100 to 1000 nM	100 to 1000 nM	100 to 1000 nM	< 100 nM	CCN(c1nc(OC[C@@]23CCCN2C[C@H](F)C3)nc2c(F)c(-c3ccc(F)c4sc(N)c(C#N)c34)c(C(F)(F)F)cc12)[C@H]1C[C@H](COC)N(C(=O)N2CC(OC)C2)C1 (atropisomer, axis not shown) [Compound 839]
100 to 1000 nM	< 100 nM	100 to 1000 nM	100 to 1000 nM	100 to 1000 nM	< 100 nM	CCN(c1nc(OC[C@@]23CCCN2C[C@H](F)C3)nc2c(F)c(-c3ccc(F)c4sc(N)c(C#N)c34)c(C(F)(F)F)cc12)[C@H]1C[C@H](COC)N(C(=O)C2C[C@@H]2F)C1 (stereo partly drawn) [Compound 870]
> 10000 nM	100 to 1000 nM	> 10000 nM	> 10000 nM	> 10000 nM	100 to 1000 nM	CN(Cc1ccccc1)c1nc(OC[C@@]23CCCN2C[C@H](F)C3)nc2c(F)c(-c3ccc(F)c4sc(N)c(C#N)c34)c(C(F)(F)F)cc12 (atropisomer, axis not shown) [Compound 890]
100 to 1000 nM	< 100 nM	100 to 1000 nM	100 to 1000 nM	100 to 1000 nM	< 100 nM	CCN(c1nc(OC[C@@]23CCCN2C[C@H](F)C3)nc2c(F)c(-c3ccc(F)c4sc(N)c(C#N)c34)c(C(F)(F)F)cc12)[C@H]1C[C@@H]2COCC(=O)N2C1 (atropisomer, axis not shown) [Compound 878]
100 to 1000 nM	< 100 nM	100 to 1000 nM	100 to 1000 nM	100 to 1000 nM	< 100 nM	CCN(c1nc(OC[C@@]23CCCN2C[C@H](F)C3)nc2c(F)c(-c3ccc(F)c4sc(N)c(C#N)c34)c(C(F)(F)F)cc12)[C@H]1CCN(C(=O)c2ncoc2C)C1 (atropisomer, axis not shown) [Compound 901]
100 to 1000 nM	< 100 nM	100 to 1000 nM	100 to 1000 nM	100 to 1000 nM	< 100 nM	CN(c1nc(OC[C@@]23CCCN2C[C@H](F)C3)nc2c(F)c(-c3ccc(F)c4sc(N)c(C#N)c34)c(C(F)(F)F)cc12)[C@H]1CC(=O)N2CCC[C@@H]12 (atropisomer, axis not shown) [Compound 916]
100 to 1000 nM	< 100 nM	100 to 1000 nM	100 to 1000 nM	100 to 1000 nM	< 100 nM	CCN(c1nc(OC[C@@]23CCCN2C[C@H](F)C3)nc2c(F)c(-c3ccc(F)c4sc(N)c(C#N)c34)c(C(F)(F)F)cc12)[C@H]1CCN(C(=O)c2ncc(C)s2)C1 (atropisomer, axis not shown) [Compound 919]
100 to 1000 nM	< 100 nM	100 to 1000 nM	100 to 1000 nM	100 to 1000 nM	< 100 nM	CCN(c1nc(OC[C@@]23CCCN2C[C@H](F)C3)nc2c(F)c(-c3ccc(F)c4sc(N)c(C#N)c34)c(C(F)(F)F)cc12)[C@H]1C[C@H](COC)N(C(=O)OC2COC2)C1 (atropisomer, axis not shown) [Compound 837]
1000 to 10000 nM	< 100 nM	1000 to 10000 nM	1000 to 10000 nM	1000 to 10000 nM	< 100 nM	C[C@@H](c1cccnc1)N(C)c1nc(OC[C@@]23CCCN2C[C@H](F)C3)nc2c(F)c(-c3ccc(F)c4sc(N)c(C#N)c34)c(C(F)(F)F)cc12 [Compound 969]
100 to 1000 nM	< 100 nM	100 to 1000 nM	100 to 1000 nM	100 to 1000 nM	< 100 nM	CCN(c1nc(OC[C@@]23CCCN2C[C@H](F)C3)nc2c(F)c(-c3ccc(F)c4sc(N)c(C#N)c34)c(C(F)(F)F)cc12)[C@H]1CCN(C(=O)OC2CCOCC2)[C@@H]1C (atropisomer, axis not shown) [Compound 825]
≤ 100 nM	< 100 nM	≤ 100 nM	100 to 1000 nM	100 to 1000 nM	< 100 nM	CCN(c1nc(OC[C@@]23CCCN2C[C@H](F)C3)nc2c(F)c(-c3ccc(F)c4sc(N)c(C#N)c34)c(C(F)(F)F)cc12)[C@H]1C[C@H](C)N(C(=O)c2coc(C)n2)C1 (atropisomer, axis not shown) [Compound 915]
100 to 1000 nM	< 100 nM	100 to 1000 nM	100 to 1000 nM	100 to 1000 nM	< 100 nM	CCN(c1nc(OC[C@@]23CCCN2C[C@H](F)C3)nc2c(F)c(-c3ccc(F)c4sc(N)c(C#N)c34)c(C(F)(F)F)cc12)[C@H]1CCN(C(=O)OC2CC(OC)C2)[C@@H]1C (stereo partly drawn) [Compound 897]
≤ 100 nM	< 100 nM	≤ 100 nM	≤ 100 nM	≤ 100 nM	< 100 nM	CCN(c1nc(OC[C@@]23CCCN2C[C@H](F)C3)nc2c(F)c(-c3ccc(F)c4sc(N)c(C#N)c34)c(C(F)(F)F)cc12)[C@H]1C[C@H]2C[C@H](C)C(=O)N2C1 (atropisomer, axis not shown) [Compound 891]
≤ 100 nM	< 100 nM	≤ 100 nM	≤ 100 nM	100 to 1000 nM	< 100 nM	CCN(c1nc(OC[C@@]23CCCN2C[C@H](F)C3)nc2c(F)c(-c3ccc(F)c4sc(N)c(C#N)c34)c(C(F)(F)F)cc12)[C@H]1C[C@H]2[C@H](C)N(C)C(=O)N2C1 (atropisomer, axis not shown) [Compound 863]

— patent publication US20260042764A1, “COMPOSITIONS AND METHODS FOR INHIBITION OF KRAS” (TheRas, Inc., priority 2022, published 2026)
